Test system: HBVPol/p11 complex
Assay: Immunofluorescent experiment and confocal microscopy: intracellular location of HBVPol/p11 complex in HepG2 cells co-delivered with HBVPol and p11
Type: cell-based, human
Conditions: HepG2 cell co-delivered with HBVPol and p11
Description: HepG2 was grown on a chamber slide charged with DMEM (supplemented with 0.1 mM non-essential amino acids and 10% FBS, culturing condition: 37° C., moisturized with a mixture of 95:5% (v/v) air and CO2), and Effectene (Qiagen) was used to deliver genes into the cell. Cells treated with EGTA and to which the gene was delivered, were washed with PBS and fixed with 100% methanol at −20° C. for 15 minutes. The slide was treated with a blocking solution (1% goat serum/PBS) at room temperature for 30 minutes and then reacted with anti-Myc rabbit (1:200) antibody against p11, anti-Flag rabbit (1:200) antibody against HBVPol, or anti-PML mouse (1:200) antibody at 4° C. for one day.
After reaction, the cells were reacted with anti-rabbit or anti-mouse goat secondary antibody, to which rhodamine or fluorscein isothiocyanate was attached, at 37° C. and then a coverslip was attached thereto with mounting solution. […]

Compound | intracellular location of HBVPol and p11 (0.5 mM for 48 hours, FIG. 5a) | intracellular location of HBVPol and p11 (30 uM for 24 hours, FIG. 5b)
O=C(O)CN(CCOCCOCCN(CC(=O)O)CC(=O)O)CC(=O)O [EGTA] | most of HBVPol and p11 migrated into the nucleus of the cell | –
CC(C)[C@@H]1NC(=O)[C@H](C)OC(=O)[C@@H](C(C)C)NC(=O)[C@@H](C(C)C)OC(=O)[C@H](C(C)C)NC(=O)[C@H](C)OC(=O)[C@@H](C(C)C)NC(=O)[C@@H](C(C)C)OC(=O)[C@H](C(C)C)NC(=O)[C@H](C)OC(=O)[C@@H](C(C)C)NC(=O)[C@@H](C(C)C)OC1=O [valinomycine] | – | HBVPol and p11 remained in the cytoplasm of the cell

Source: patent publication US7148013B2, “Complex of Hepatitis B virus polymerase with p11 and method for controlling movement of the complex in HepG2 cell” (Korea Institute of Science and Technology, priority 2002, dated 2006)
